Assay results: patent US20240173317A1, “METHODS FOR TREATING PROGRESSIVE FAMILIAL INTRAHEPATIC CHOLESTASIS” (MIRUM PHARMACEUTICALS, INC., priority 2022, published 2024)
Where two headings read alike, the source gives them in different places.

Key:
[1] = test system: subjects with PFIC; assay: Clinician Scratch Scale (CSS) score, MARCH-PFIC Phase 3 study; format: in vivo, human
Description: Clinician Scratch Scale (CSS). The CSS provides an assessment of itch severity. The clinician's assessment of the subject's pruritus focused on scratching and visible damage to the skin as a result of scratching as observed by the physician. The CSS uses a 5-point scale, in which 0 designates no evidence of scratching and 4 designates cutaneous mutilation with bleeding, hemorrhage and scarring. A clinician's assessment of pruritus made by the principal investigator or sub-investigator using the CSS was recorded at screening, baseline, and at additional study visits as outline in Table 2.
For the PFIC Cohort, PFIC Type is included in the model as an additional covariate.
Clinician Scratch Scale (CSS) was scored on a 0-4 scale, where 0=none and 4=cutaneous mutilations, haemorrage, and scarring (worst scratching).

[2] = Height and weight Z-score, MARCH-PFIC Phase 3 study; format: in vivo, human; details: BSEP deficiency group and PFIC group vs placebo
[3] = test system: subjects with PFIC; assay: Treatment-emergent adverse events (TEAEs), MARCH-PFIC Phase 3 study; format: in vivo
Description: A TEAE can therefore be any unfavorable and unintended sign (including an abnormal laboratory finding), symptom, or disease temporally associated with the use of a medicinal (investigational) product, whether or not related to the medicinal (investigational) product (ICH Guidance E2A 1995). All TEAEs are collected from the time the informed consent is signed until the defined follow-up period. This includes events occurring during the screening phase of the study, regardless of whether or not study medication is administered.
A serious adverse event (SAE) is any untoward medical occurrence (whether considered to be related to study medication or not) that at any dose: 1) Results in death; 2) Is life-threatening; 3) Requires inpatient hospitalization or prolongation of existing hospitalization; 4) Results in persistent or significant disability/incapacity; or 5) Is an important medical event.
All SAEs (regardless of relationship to study) are collected from the time the subject signs the informed consent until the defined follow-up period and must be reported within 24 hours of the first awareness of the event.

[4] = test system: participants with PFIC 1 or PFIC 2; details: cited from earlier work
[5] = BSEP deficiency cohort, FIG. 19A
[6] = MARCH, all PFIC cohorts, Maralixibat (n = 47)
[7] = MARCH, all PFIC cohorts, Maralixibat (n = 47), listed as Maralixibat
[8] = among the 8 participants receiving MRX who had transaminase elevations

## CCCCC1(CCCC)CS(=O)(=O)c2ccc(N(C)C)cc2[C@@H](c2ccc(OCc3ccc(C[N+]45CCN(CC4)CC5)cc3)cc2)[C@H]1O [maralixibat, 1-(4-((4-((4R,5R)-3,3-dibutyl-7-(dimethylamino)-4-hydroxy-1,1-dioxido-2,3,4,5-tetrahydrobenzo[b]thiepin-5-yl)phenoxy)methyl)benzyl)-1,4-diazabicyclo[2.2.2]octan-1-ium]
[1]; [5]
  difference in CSS improvement vs placebo group: 1.328 point
  improvement in CSS score relative to baseline: about 1.7 points
[1]; PFIC cohort, FIG. 19B
  difference in CSS improvement vs placebo group: 1.247 point
  improvement in CSS score relative to baseline: about 1.8 points
[2]; FIG. 24A-C
  change of participant height Z-score over time: overall positive trend for increase
[2]; FIG. 25A-C
  change of participant weight Z-score over time: gained significantly more weight over time than placebo participants
[3]; MARCH
  median duration of diarrhea: 5.5 days
  patients who discontinued MRX due to transaminase elevation: No patients
  tolerability: well-tolerated
[3]; [6]
  Any TEAE, %: (100%)
  Diarrhoea related to study drug, %: (27.7%)
  GI disorders (most common TEAEs), %: 74.5%
  GI events potentially related to study drug, %: (29.8%)
  Grade 3/4 TEAE, %: (6.4%)
  Serious TEAE (SAE), %: 10.6%
  TEAE leading to discontinuation, %: (2.1%)
  TEAE potentially related to study drug, %: (38.3%)
[3]; MARCH, all PFIC cohorts, Maralixibat (n = 47), listed as MRX
  Serious TEAE (SAE), %: 10.6%
[3]; [7]
  Diarrhoea, %: (57.4%)
  Serious TEAE (SAE), %: (10.6%)
[3]; MARCH, MRX (n = 47)
  Constipation, %: (8.5) %
  Gastroenteritis, %: (6.4) %
  Haematochezia, %: (6.4) %
  Increased ALT, %: (12.8) %
  Vomiting, %: (6.4) %
[3]; [8]
  participants with resolution of the transaminase elevation without drug interruption: 6
  patients with ongoing stable transaminase elevation even after drug interruption or dose reduction: 2
[4]; participants with PFIC 2
  response in Indigo Phase 2 study: had a response
[4]; patients with PFIC 1
  response in Indigo Phase 2 study: did not have a response
